Measured values published in patent US9828351B2, “Enzyme interacting agents” (MONASH UNIVERSITY, priority 2014, dated 2017).
Like-named read-outs stand apart in the source and are kept apart here.

Legend:
[1] = target: T1, Dihydroceramide Desaturase-1 (Des1) (Homo sapiens, UniProt O15121); test: Dihydroceramide desaturase-1 (Des1) activity by HPLC in intact Jurkat cells labeled with DhCer-C6-NBD; type: cell-based
T1 construct: These modifications included the use of parental Jurkat cells; endogenous in cells; host or cells: parental Jurkat cells
T1 sequence (O15121 1-323): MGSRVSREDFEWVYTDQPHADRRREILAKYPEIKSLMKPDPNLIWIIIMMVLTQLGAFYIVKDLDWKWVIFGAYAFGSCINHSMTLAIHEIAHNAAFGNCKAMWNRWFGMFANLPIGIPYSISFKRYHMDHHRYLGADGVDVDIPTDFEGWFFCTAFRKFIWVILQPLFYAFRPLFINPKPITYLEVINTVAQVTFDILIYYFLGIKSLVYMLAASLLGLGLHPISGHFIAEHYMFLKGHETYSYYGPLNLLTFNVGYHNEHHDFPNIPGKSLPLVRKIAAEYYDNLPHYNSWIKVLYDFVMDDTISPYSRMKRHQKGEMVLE
Protocol: Measurement of Dihydroceramide Desaturase-1 (Des1) Activity:
These modifications included the use of parental Jurkat cells, 0.5% serum in the culture media, and cell harvesting via centrifugation at 500×g to maximise ceramide extraction. Extracted samples (50 ul) were analysed on a Waters HPLC coupled to a fluorescence detector using a 30 cm C18 reverse-phase column eluted with 1 ml/min 20% H2O and 80% acetonitrile, both with a 0.1% of trifluoroacetic acid.

[2] = target: T2, recombinant his tagged human SphK1 (Homo sapiens, UniProt Q9NYA1); test: SphK1 activity assay (32P-labelled S1P production); type: biochemical; settings: 10 μM compound; % of activity compared to control (DMSO vehicle only)
T2 construct: His tag; made in house; host or cells: insect cells (baculovirus system)
T2 sequence (Q9NYA1 whole entry): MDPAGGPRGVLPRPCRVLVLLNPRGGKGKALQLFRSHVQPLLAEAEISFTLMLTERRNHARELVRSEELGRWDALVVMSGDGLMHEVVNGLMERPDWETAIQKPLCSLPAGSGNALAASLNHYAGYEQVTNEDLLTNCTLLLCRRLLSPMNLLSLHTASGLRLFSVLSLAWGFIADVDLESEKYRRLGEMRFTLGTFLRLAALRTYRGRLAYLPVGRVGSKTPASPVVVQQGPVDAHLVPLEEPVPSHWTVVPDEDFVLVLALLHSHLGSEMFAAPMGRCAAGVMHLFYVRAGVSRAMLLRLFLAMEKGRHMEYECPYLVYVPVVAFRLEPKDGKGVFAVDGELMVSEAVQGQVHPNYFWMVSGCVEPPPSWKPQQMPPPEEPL
Protocol: (§1) The SphK assays employed, measure SphK activity through the production of ^32P-labelled S1P following the addition of exogenous Sph and [γ^32P] ATP.
(§2) Activities of SphK1 and SphK2 were determined using identical assay conditions with the exception that SphK1 assays used 3 ng/assay recombinant his tagged human SphK1 (made in the lab in a baculovirus system using insect cells), while SphK2 assays used 30 ng/assay recombinant human SphK2 (purchased by Johnson and Johnson).
(§3) Compounds were dissolved in DMSO at 10 mM, the mixture was vortexed (and sonicated if necessary). Stock solutions were kept at 4° C. until used.
(§4) Aliquots were made containing 100 μM drug compound. These aliquots were then diluted in assay buffer: 100 mM tris/HCl pH 7.4, 100 mM NaCl, 1 mM sodium orthovanadate, 10 mM NaF to make up a 10 μM solution.
(§5) Recombinant enzyme was diluted in assay buffer (above) to make up a final concentration of 0.03 ng/μL (SphK1) or 0.33 ng/μL (SphK2).
(§6) 40 μL recombinant enzyme was added to an Eppendorf® Safe-Lock® microcentrifuge tube. This was followed by the addition of drug compound from prepared aliquots, before adding ATP, [γ^32P]ATP and Sph. Note: ATP stock is made up in 1M Tris pH 7.4 and 200 mM MgCl2. This allows ATP to complex with Mg and be available as a substrate.
(§7) The rest of the reaction mixture was then added to the enzyme sample (Table 1). All reactions were performed as triplicates.
(§8) Reaction mixture was prepared with sufficient volume to assay all of the required samples. To do this, each of the volumes shown was multiplied by n+1, where n is the number of samples to be assayed. Assay buffer used is made up of 100 mM tris/HCl pH 7.4, 100 mM NaCl, 1 mM sodium orthovanadate and 10 mM NaF.
(§9) The mixture was then incubated at 37° C. for 20 min (SphK1)/45 min (SphK2).
(§10) To the 100 μL assay mixture, add 270 μl of chloroform/methanol/conc. HCl (100:200:1).
(§11) 20 μL of 5 M KCl was then added to the assay mixture.
(§12) 70 μL of chloroform was added to create phase separation. The solution was vortexed to mix well.
(§13) The solution was then centrifuged for 5 min at 13,000×g to fully separate the phases.
(§14) The upper aqueous/methanol phase was separated by aspiration.
(§15) 50 μL of the remaining lower chloroform phase […] was applied onto the TLC plate by repeatedly spotting a few microliters of liquid (<5 mm diameter circle) between each sample spot with the pipette tip. The liquid was then allowed to absorb into the plate before drying with a stream of air.
(§16) The TLC plate was developed in a glass TLC developing tank with 1-butanol/ethanol/glacial acetic acid/H2O (8:2:1:2) until the mobile phase is within 1 cm of the top of the TLC plate.
(§17) The TLC plate was then exposed to a storage phosphor screen overnight. Storage phosphor screens work by capturing images produced by ionising radiation (e.g. ^32P). The phosphorimager stimulates the screen which uses lasers to convert the latent signal to light. Light is proportional to the amount of radioactivity in the sample. The image is then quantified using standard quantification software (ImageQuant™). Whatman paper with the assay mixture dilutions, was included to assist quantification of the phosphor signal.
(§18) Once the storage phosphor screen was read using the phosphorimager, S1P spots, which have an Rf of 0.7 with the mobile phase employed, were quantified.
(§19) The S1P spot intensity can be converted to the amount of phosphate transferred/min/mg protein.

recombinant human SphK2 = target: T3, recombinant human SphK2 (Homo sapiens, UniProt Q9NRA0); test: SphK2 activity assay (32P-labelled S1P production); type: biochemical; settings: 10 μM compound; % of activity compared to control (DMSO vehicle only); read-out: SphK2% actvity at 10 μm
T3 construct: purchased Johnson and Johnson
T3 sequence (Q9NRA0 1-654): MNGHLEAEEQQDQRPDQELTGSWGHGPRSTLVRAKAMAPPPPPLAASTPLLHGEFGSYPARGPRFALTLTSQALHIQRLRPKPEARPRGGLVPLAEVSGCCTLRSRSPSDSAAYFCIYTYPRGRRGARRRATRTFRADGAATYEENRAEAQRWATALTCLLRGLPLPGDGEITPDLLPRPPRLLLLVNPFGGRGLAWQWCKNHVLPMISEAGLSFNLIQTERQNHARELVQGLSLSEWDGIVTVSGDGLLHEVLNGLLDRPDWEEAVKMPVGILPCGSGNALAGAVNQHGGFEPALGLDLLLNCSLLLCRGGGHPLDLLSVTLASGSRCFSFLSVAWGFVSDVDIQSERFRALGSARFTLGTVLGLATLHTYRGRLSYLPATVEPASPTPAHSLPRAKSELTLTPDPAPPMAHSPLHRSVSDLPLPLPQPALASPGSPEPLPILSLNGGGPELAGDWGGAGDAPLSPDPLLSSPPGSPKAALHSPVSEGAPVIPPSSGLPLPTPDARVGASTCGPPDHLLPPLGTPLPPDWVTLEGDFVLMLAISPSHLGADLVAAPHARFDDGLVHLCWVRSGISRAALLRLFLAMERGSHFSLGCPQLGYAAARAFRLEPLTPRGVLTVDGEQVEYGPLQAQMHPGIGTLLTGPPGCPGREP
Protocol: as §1, §2, §3, §4, §5, §6, §7, §8, §9, §10, §11, §12, §13, §14, §15, §16, §17, §18, §19

[3] = tested on: PC3 prostate cancer cell lines; test: Anticancer activity in PC3 cell line, CellTitre AQueous One cell viability assay; type: cell-based; settings: Homo sapiens, PC-3; concentration required to inhibit cell proliferation by 50%; 72 hours
Protocol: Measurement of Anticancer Activity in PC3 Cell Line Assays
PC3 prostate cancer cell lines were cultured in DMEM (containing 10% fetal calf serum and penicillin-streptomycin).
Before treatment with drug compounds, cells were plated at 2,500 cells/well in 96 well plates and incubated at 37° C. with 5% CO2 in a humidified incubator for 24 hours prior. Cells were only plated in columns 3-10 and rows C—F to ensure uniform humidity and warmth across all wells. The remaining wells were filled with 100 μL of phosphate buffered saline.
Drug stock solutions (50 or 10 mM) were diluted×1000 in media to a final concentration of either 50 μM or 10 μM with a DMSO vehicle concentration of 0.1%.
Cell culture supernatants were aspirated and replaced with drug containing media. Drug treatments were performed in duplicate wells, while potential plate layout-specific variation in cell growth was accounted for by addition of a vehicle control (0.1% DMSO).
Cells were then incubated with drug compounds at 37° C. with 5% CO2 in a humidified incubator for 72 hours prior to assay.
Media was diluted with CellTitre AQueous One Solution (Promega, Australia; Cat # G3580) according to manufacturer's instructions to produce a final concentration of 317 μg/mL.
Cell culture supernatants were then aspirated from wells and replaced with 100 μL of CellTitre solution. Triplicate cell-free control wells containing only CellTitre solution were also included in each assay.
Cells were then incubated at 37° C. with 5% CO2 in a humidified incubator for 1 hour at which time absorbance was read at 490 nm with an EnVision microplate reader (Perkin Elmer, Australia).
When analysing data, background absorbance (taken from cell-free control wells) was subtracted from each reading. […] For each drug concentration the mean (±SEM) is calculated and graphed using GraphPad Prism (version 5). A sigmoidal curved is fitted to the data and used to calculate the IC50 of each compound.

[4] = intact Jurkat cells, read-out: Des 1 IC50

Compound | IC50 [1, 4] | activity at 10 µM [2] | remaining activity at 10 µM (recombinant human SphK2) | IC50 [3] | other results
Oc1ccc(Nc2nc(-c3ccc(Cl)cc3)ns2)cc1 [Example E-32, 4-((3-(4-chlorophenyl)-1,2,4-thiadiazol-5-yl)amino)phenol] | 0.1 to 1 µM | – | – | – | –
N/C(=N\O)c1ccc(Nc2nnc(-c3ccc(Cl)cc3)o2)cc1 [Example E-9, (Z)-4-((5-(4-Chlorophenyl)-1,3,4-oxadiazol-2-yl)amino)-N′-hydroxybenzimidamide] | 1 to 10 µM | – | – | – | –
N=C(N)c1ccc(Nc2nnc(-c3ccccc3)o2)cc1 [Example E-20, Amino(4-((5-phenyl-1,3,4-oxadiazol-2-yl)amino)phenyl)methaniminium chloride] | – | 80 to 100% | 20 to 50% | > 100 µM | –
Oc1ccc(Nc2nnc(-c3ccc(I)cc3)o2)cc1 [Example E-24, 4-((5-(4-Iodophenyl)-1,3,4-oxadiazol-2-yl)amino)phenol] | 1 to 10 µM | – | – | – | –
Clc1ccc(-c2nnc(NCc3ccncc3)o2)cc1 [Example E-30, 5-(4-Chlorophenyl)-N-(pyridin-4-ylmethyl)-1,3,4-oxadiazol-2-amine] | – | 1 to 5% | 20 to 50% | > 100 µM | –
Clc1ccc(-c2nnc(Nc3ccc(-c4nn[nH]n4)cc3)o2)cc1 [Example E-27, 5-(4-Chlorophenyl)-N-[4-(1H-tetrazol-5-yl)phenyl]-1,3,4-oxadiazol-2-amine] | – | 20 to 50% | 50 to 80% | 10 to 100 µM | Des 1 IC50 ([1]; intact Jurkat cells): inactive
Oc1ccc(Nc2noc(-c3ccc(Cl)cc3)n2)cc1 [Example E-3, 4-((5-(4-Chlorophenyl)-1,2,4-oxadiazol-3-yl)amino)phenol] | 1 to 10 µM | – | – | – | –
O=C(Nc1ccc(-c2nnc(-c3ccc(Cl)cc3)o2)cc1)[C@H]1NCC[C@@H]1O [Example E-12, (2S,3S)-2-((4-(5-(4-chlorophenyl)-1,3,4-oxadiazol-2-yl)phenyl)carbamoyl)-3-hydroxypyrrolidin-1-ium chloride] | – | 50 to 80% | 20 to 50% | > 100 µM | –
Oc1ccc(Nc2nnc(-c3ccc(Cl)cc3)s2)cc1 [Example E-2, 4-((5-(4-Chlorophenyl)-1,3,4-thiadiazol-2-yl)amino)phenol] | 1 to 10 µM | – | – | – | –
O=C(Nc1ccc(O)cc1)c1csc(-c2ccc(Cl)cc2)n1 [Example E-6, 2-(4-Chlorophenyl)-N-(4-hydroxyphenyl)thiazole-4-carboxamide] | – | 20 to 50% | 50 to 80% | > 100 µM | –
Cl.N=C(N)c1ccc(Nc2nnc(-c3ccc(Cl)cc3)o2)cc1 [Example E-23, Amino(4-((5-(4-chlorophenyl)-1,3,4-oxadiazol-2-yl)amino)phenyl)methaniminium chloride] | – | – | – | – | Des 1 IC50 ([1]; intact Jurkat cells): inactive
Oc1ccc(Nc2nnc(-c3ccc(Cl)cc3)o2)cc1 [Example E-1, 5-(4-Chlorophenyl)-N-(4-hydroxyphenyl)-1,3,4-oxadiazol-2-amine] | 0.1 to 1 µM | – | – | – | –
Cc1nc(-c2ccc(Nc3nnc(-c4ccc(Cl)cc4)o3)cc2)no1 [Example E-10, 5-(4-Chlorophenyl)-N-(4-(5-methyl-1,2,4-oxadiazol-3-yl)phenyl)-1,3,4-oxadiazol-2-amine] | – | 80 to 100% | 50 to 80% | > 100 µM | –
Oc1ccc(Nc2nnc(-c3ccc(C(F)(F)F)cc3)o2)cc1 [Example E-26, 4-((5-(4-(Trifluoromethyl)phenyl)-1,3,4-oxadiazol-2-yl)amino)phenol] | – | – | – | – | IC50 [1]: 0.1 to 1 µM
O=C(NCc1ccc(-c2nnc(-c3ccc(Cl)cc3)o2)cc1)[C@H]1NCC[C@@H]1O [Example E-18, (2S,3S)-2-((4-(5-(4-chlorophenyl)-1,3,4-oxadiazol-2-yl)benzyl)carbamoyl)-3-hydroxypyrrolidin-1-ium chloride] | – | 50 to 80% | 80 to 100% | > 100 µM | –
Oc1ccc(Nc2nc(-c3ccc(Cl)cc3)no2)cc1 [Example E-4, 4-((3-(4-Chlorophenyl)-1,2,4-oxadiazol-5-yl)amino)phenol] | 1 to 10 µM | – | – | – | –
Oc1ccc(Nc2nsc(-c3ccc(Cl)cc3)n2)cc1 [Example E-31, 4-((5-(4-chlorophenyl)-1,2,4-thiadiazol-3-yl)amino)phenol] | 0.1 to 1 µM | – | – | – | –
N=C(N)c1ccc(-c2nnc(-c3ccccc3)o2)cc1 [Example E-17, Amino(4-(5-phenyl-1,3,4-oxadiazol-2-yl)phenyl)methaniminium chloride] | – | 200 to 300% | 80 to 100% | > 100 µM | –
